Each compound was assayed against T1, CETP (Homo sapiens, UniProt P11597) (assay: CETP activity in vitro: transfer of [3H]CE from HDL donor to LDL acceptor particles). Conditions: 10 μm.
T1 construct: made in house; host or cells: CHO cells (serum-free conditioned medium)
T1 sequence (P11597 18-493): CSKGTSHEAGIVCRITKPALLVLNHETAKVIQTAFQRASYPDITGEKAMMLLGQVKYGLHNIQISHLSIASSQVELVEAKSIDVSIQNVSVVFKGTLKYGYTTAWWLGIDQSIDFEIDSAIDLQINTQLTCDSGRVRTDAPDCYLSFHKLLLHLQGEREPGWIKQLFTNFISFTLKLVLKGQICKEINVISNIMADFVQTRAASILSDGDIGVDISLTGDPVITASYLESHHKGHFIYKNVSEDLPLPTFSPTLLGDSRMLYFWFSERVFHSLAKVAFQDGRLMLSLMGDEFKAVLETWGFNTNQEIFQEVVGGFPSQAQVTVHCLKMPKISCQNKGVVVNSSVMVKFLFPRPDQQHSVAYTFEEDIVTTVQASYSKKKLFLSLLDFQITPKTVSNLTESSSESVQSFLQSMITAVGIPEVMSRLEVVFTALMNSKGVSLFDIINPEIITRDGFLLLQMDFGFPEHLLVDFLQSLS
Format: biochemical
How it was run: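 Transfer of radiolabelled cholesteryl ester from HDL to LDL was followed over 2 h at 37 °C in Tris buffer (pH 7.4, 150 mM NaCl, 2 mM EDTA, 1% BSA), using CETP secreted by transfected CHO cells. Radioactivity in dextran sulfate/Mg-precipitated LDL was measured by scintillation counting, giving IC50.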

% transfer at 10 μm	Structure (SMILES)
15^D %	COC(=O)c1c(C(F)F)nc(C(F)(F)F)c(SC(C)OC)c1CC(C)C (stereo not shown) [Compound 147, Methyl 2-(Difluoromethyl)-4-(2-methylpropyl)-5-(1-methoxyethylthio)-6-(trifluoromethyl)-3-pyridinecarboxylate]
67^D %	CCOC(C)Sc1c(C(F)(F)F)nc(C(F)F)c(C(=O)OC)c1CC(C)C (stereo not shown) [Compound 146, Methyl 2-(Difluoromethyl)-5-(1-ethoxyethylthio)-4-(2-methylpropyl)-6-(trifluoromethyl)-3-pyridinecarboxylate]
32^D %	COC(=O)c1c(C(F)F)nc(C(F)(F)F)c(SCCF)c1CC(C)C [Compound 148, Methyl 2-(Difluoromethyl)-5-(2-fluoroethylthio)4-(2-methylpropyl)-6-(trifluoromethyl)-3-pyridinecarboxylate]

Same assay, conditions: 50% inhibition of [3H]CE transfer from HDL to LDL, 2 hours at 37° C.; read-out: IC50(μm)

Structure (SMILES)	IC50 [µM]
CCOC(=O)c1c(C(F)(F)F)nc(C(F)(F)F)c(C)c1Sc1ccc(C(C)C)cc1 [Compound 11, Ethyl 2,6-Bis(trifluoromethyl)-4-[4-(isopropylphenyl)thio]-5-methyl-3-pyridinecarboxylate]	25
CCOP(=O)(OCC)C(=O)c1c(C(F)(F)F)nc(C(F)F)c(C(=O)OC)c1NC(C)C [Compound 85, Methyl 5-[(Diethoxyphosphinyl)carbonyl]-2-(difluoromethyl)-4-(1-methylethylamino)-6-(trifluoromethyl)-3-pyridinecarboxylate]	90
COC(=O)c1c(C(F)F)nc(C(F)(F)F)c(C(O)c2ccco2)c1CC(C)C (stereo not shown) [Compound 13, Methyl 2-(difluoromethyl)-5-(1-hydroxyl-furylmethyl)-4-(2-methylpropyl)-6-(trifluoromethyl)-3-pyridinecarboxylate]	30
COC(=O)c1c(C(F)F)nc(C(F)(F)F)c(C(=O)Oc2ccc(C(C)(C)C)cc2C(C)(C)C)c1CC(C)C [Compound 168, 3-Methyl 5-(2,4-Di-t-butylphenyl) 2-(Difluoromethyl)-4-(2-methylpropyl)-6-(trifluoromethyl)-3,5-pyridicarboxylate]	60
CCOC(=O)c1c(Sc2ccccc2)cc(C(F)(F)F)nc1C(F)(F)F [Compound 23]	40
COC(=O)c1c(C(F)F)nc(C(F)(F)F)c(C(OC)c2ccns2)c1CC(C)C (stereo not shown) [Compound 34, Methyl 2-(Difluoromethyl)-5-[(methoxy)isothiazol-5-ylmethyl]-4-(2-methylpropyl)-6-(trifluoromethyl)-3-pyridinecarboxylate]	45

Same assay, conditions: 2 h; read-out: % Transfer @ 100 μm

remaining activity at 100 µM [%]	Structure (SMILES)
76	CCOC(=O)c1cnc(C(F)(F)F)c(Oc2ccccc2)c1O [Compound 109, Ethyl 4-Hydroxy-5-phenoxy-6-(trifluoromethyl)-3-pyridinecarboxylate]
90	COC(=O)c1c(OC(C)C)ccnc1C(F)(F)F [Compound 127, Methyl 4-(1-Methylethoxy)-2-(trifluoromethyl)-3-pyridinecarboxylate]
81	CCOC(=O)c1cnc(C(F)(F)F)c(OCC)c1O [Compound 114, Ethyl 5-Ethoxy-4-Hydroxy-6-(trifluoromethyl)-3-pyridinecarboxylate]

Same assay, conditions: @ 100 μm; footnotes A and B of Table 6

CE transferred	Structure (SMILES)
^B80% CE transferred @ 100 μm.	COC(=O)c1c(C(F)F)nc(C(F)(F)F)c(CSc2ccc(NC(C)=O)cc2)c1CC(C)C [Compound 204, Methyl 5-[(4-(Acetylamino)phenyl)thiomethyl]-2-(difluoromethyl)-4-(2-methylpropyl)-6-(trifluoromethyl)-3-pyridinecarboxylate]

Same assay, conditions: IC50(μm), 50% inhibition of [3H]CE transfer from HDL to LDL, 2 hours at 37° C.

Structure (SMILES)	IC50 [µM]
COC(=O)c1c(C(F)F)nc(C(F)(F)F)c(C(=O)Oc2ccccc2C(C)C)c1CC(C)C [Compound 175, 3-Methyl 5-(2-Isopropylphenyl) 2-(Difluoromethyl)-4-(2-methylpropyl)-6-(trifluoromethyl)-3,5-pyridicarboxylate]	> 100
COC(=O)c1c(C(F)F)nc(C(F)(F)F)c(C2SCCS2)c1CC(C)C [Compound 61]	60
COC(=O)c1c(C(F)F)nc(C(F)(F)F)c(C#C[Si](C)(C)C)c1CC(C)C [Compound 19, Methyl 2-(Difluoromethyl)-4-(2-methylpropyl)-6-(trifluoromethyl)-5-[(trimethylsilyl)ethynyl]-3-pyridinedicarboxylate]	35
COC(=O)c1c(C(F)F)nc(C(F)(F)F)c(C2OCCCO2)c1CC(C)C [Compound 59, Methyl 2-(Difluoromethyl)-5-(1,3-dioxan-2-yl)-4-(2-methylpropyl)-6-(trifluoromethyl)-3-pyridinecarboxylate]	55
COC(=O)c1c(C(F)F)nc(C(F)(F)F)c(C(=O)SC)c1CC(C)C [Compound 69]	65
COC(=O)c1c(C(F)F)nc(C(F)(F)F)c(N=COCC2CO2)c1CC(C)C (stereo not shown) [Compound 30]	40
CCCc1c(C(=O)OC)c(C(F)F)nc(C(F)(F)F)c1C(=O)SCC [Compound 62]	60
CCOC(=O)c1c(C(F)(F)F)nc(C(F)(F)F)c(C(=O)OCC)c1CC(C)C [Compound 36, Diethyl 2,6-Bis(trifluoromethyl)-4-(2-methylpropyl)-3,5-pyridinedicarboxylate]	45

Same assay, conditions: IC50, Table 8

Structure (SMILES)	IC50 [µM]
C=CC(O)c1c(C(F)F)nc(C(F)(F)F)c(C(=O)OC)c1CC(C)C (stereo not shown) [Compound 295]	> 100

Same assay, conditions: Table 6, compounds of formula T-6; read-out: IC50

IC50 [µM]	Structure (SMILES)
80	COC(=O)c1c(C(F)F)nc(C(F)(F)F)c(CSc2cccc3cccnc23)c1CC(C)C [Compound 202, Methyl 5-[(Quinolin-8-yl)thiomethyl]-2-(difluoromethyl)-4-(2-methylpropyl)-6-(trifluoromethyl)-3-pyridinecarboxylate]
20	COC(=O)c1c(C(F)F)nc(C(F)(F)F)c(CSc2nc3ccccc3[nH]2)c1CC(C)C [Compound 210, Methyl 5-[(Benzimidazol-2-yl)thiomethyl]-2-(difluoromethyl)-4-(2-methylpropyl)-6-(trifluoromethyl)-3-pyridinecarboxylate]
> 100	COC(=O)c1c(C(F)F)nc(C(F)(F)F)c(CSc2ccc(NC(C)=O)cc2)c1CC(C)C [Compound 204, Methyl 5-[(4-(Acetylamino)phenyl)thiomethyl]-2-(difluoromethyl)-4-(2-methylpropyl)-6-(trifluoromethyl)-3-pyridinecarboxylate]
15	COC(=O)c1c(C(F)F)nc(C(F)(F)F)c(CSc2nc3ccccc3s2)c1CC(C)C [Compound 212, Methyl 5-[(Benzothiazol-2-yl)thiomethyl]-2-(difluoromethyl)-4-(2-methylpropyl)-6-(trifluoromethyl)-3-pyridinecarboxylate]

Same assay, conditions: Table 7, compounds of formula T-7; read-out: IC50

Structure (SMILES)	IC50 [µM]
COC(=O)c1c(C(F)F)nc(C(F)(F)F)c(SCc2ccc(-c3ccccc3)cc2)c1CC(C)C [Compound 225]	10
COC(=O)c1c(C(F)F)nc(C(F)(F)F)c(SCc2c3ccccc3cc3ccccc23)c1CC(C)C [Compound 227]	30
COC(=O)c1c(C(F)F)nc(C(F)(F)F)c(SCc2ccc3c(c2Cl)OCO3)c1CC(C)C [Compound 226, Methyl 5-[(2-Chloro-3,4-methylenedioxyphenyl)methylthio]-2-(difluoromethyl)-4-(2-methylpropyl)-6-(trifluoromethyl)-3-pyridinecarboxylate]	60

The next lines start with the values.

IC50 [µM]	Structure (SMILES)
50	COC(=O)c1c(C(F)F)nc(C(F)(F)F)c(SCc2ccc3ccccc3n2)c1CC(C)C [Compound 241, Methyl 5-[(2-quinolinyl)methylthio]-2-(difluoromethyl)-4-(2-methylpropyl)-6-(trifluoromethyl)-3-pyridinecarboxylate]
30	COC(=O)c1c(C(F)F)nc(C(F)(F)F)c(SCc2ccc(Cl)cc2Cl)c1CC(C)C [Compound 237]

Same assay, conditions: Table 8; read-out: IC50

IC50 [µM]	Structure (SMILES)
60	O=C(c1ccc2ccccc2c1)c1c(C(F)(F)F)nc(C(F)F)c(CO)c1-c1ccccc1 [Compound 259]
> 100	OCc1c(C(F)(F)F)nc(C(F)F)c(C(O)c2ccc3ccccc3c2)c1-c1ccccc1 (stereo not shown) [Compound 280]
80	CCOC(=O)c1c(C(F)(F)F)nc(C(F)F)c(C(O)c2ccc3ccccc3c2)c1-c1ccccc1 (stereo not shown) [Compound 278]
8	CC(C)c1ccc(Cc2c(C(F)F)nc(C(F)(F)F)c(C=O)c2-c2ccccc2)cc1 [Compound 274]
55	CCOC(=O)c1c(C(F)(F)F)nc(C(F)F)c(C(F)c2ccc(Cl)cc2)c1-c1ccc(F)cc1 (stereo not shown) [Compound 254]
7	O=Cc1c(C(F)F)nc(C(F)(F)F)c(C(F)c2ccc(C(F)(F)F)cc2)c1-c1ccc(F)cc1 (stereo not shown) [Compound 251]
4.5	O=Cc1c(C(F)F)nc(C(F)(F)F)c(COCc2ccccc2)c1-c1ccc(F)cc1 [Compound 252]
19	OCc1c(C(F)(F)F)nc(C(F)F)c(C(F)c2ccc(C(F)(F)F)cc2)c1-c1ccc(F)cc1 (stereo not shown) [Compound 253]
> 100	CC(C)c1ccc(C(O)c2c(C(F)F)nc(C(F)(F)F)c(CO)c2-c2ccccc2)cc1 (stereo not shown) [Compound 275]
15	O=Cc1c(C(F)(F)F)nc(C(F)F)c(Cc2ccc3ccccc3c2)c1-c1ccccc1 [Compound 279]
77	Fc1ccc(-c2c(COCc3ccccc3)c(C(F)(F)F)nc(C(F)F)c2C(F)c2ccc(C(F)(F)F)cc2)cc1 (stereo not shown) [Compound 248]
5	OCc1c(C(F)(F)F)nc(C(F)F)c(C(F)c2ccc(C(F)(F)F)cc2)c1-c1ccc(F)cc1 (stereo not shown) [Compound 249]

From patent US6794396B2, “Substituted pyridines useful for inhibiting cholesteryl ester transfer protein activity” (Pharmacia Corporation, priority 1998, dated 2004)
